Converted amounts (≈) assume the structure as drawn.

Common to all, as to format: functional
In experiment [1] the test system is Candida albicans. Briefly: Antifungal activity against Candida albicans ATCC 64124 after 48 hrs by CLSI M27-A3 method. Conditions: ATCC 64124, 48 h.
Experiment [2] relates to Candida albicans. Briefly: Antifungal activity against Candida albicans ATCC MYA-2876 after 48 hrs by CLSI M27-A3 method. To be noted: ATCC MYA-2876, 48 h.
The test system of experiment [3] is Candida albicans. In words: Antifungal activity against Candida albicans ATCC MYA-90819 after 48 hrs by CLSI M27-A3 method. Conditions: ATCC MYA-90819, 48 h.
Experiment [4] relates to Candida albicans. Briefly: Antifungal activity against Candida albicans ATCC MYA-2310 after 48 hrs by CLSI M27-A3 method. Conditions: ATCC MYA-2310, 48 h.
Experiment [5] deals with Candida albicans. In words: Antifungal activity against Candida albicans ATCC MYA-1237 after 48 hrs by CLSI M27-A3 method. Conditions: ATCC MYA-1237, 48 h.
In experiment [6] the test system is Candida albicans. In words: Antifungal activity against Candida albicans ATCC 10231 after 48 hrs by CLSI M27-A3 method. To be noted: ATCC 10231, 48 h.
In experiment [7] the test system is Candida albicans. In words: Antifungal activity against Candida albicans ATCC MYA-1003 after 48 hrs by CLSI M27-A3 method. Conditions: ATCC MYA-1003, 48 h.
The test system of the next experiment is Nakaseomyces glabratus. In words: Antifungal activity against Candida glabrata ATCC 2001 after 48 hrs by CLSI M27-A3 method. To be noted: CBS 138, 48 h.
Another experiment has as its system Pichia kudriavzevii. In words: Antifungal activity against Candida krusei ATCC 6258 after 48 hrs by CLSI M27-A3 method. To be noted: ATCC 6258, 48 h.
A further experiment deals with Candida parapsilosis. Briefly: Antifungal activity against Candida parapsilosis ATCC 22019 after 48 hrs by CLSI M27-A3 method. Conditions: Lodderomyces parapsilosis, ATCC 22019, 48 h.
A further experiment deals with Aspergillus flavus. In words: Antifungal activity against Aspergillus flavus ATCC MYA-3631 after 48 hrs by CLSI M38-A2 method. Conditions: ATCC MYA-3631, 48 h.
A further experiment concerns Aspergillus nidulans. Briefly: Antifungal activity against Aspergillus nidulans ATCC 38163 after 48 hrs by CLSI M38-A2 method. To be noted: ATCC 38163, 48 h.
A further experiment has as its system Aspergillus terreus. In words: Antifungal activity against Aspergillus terreus ATCC MYA3633 after 48 hrs by CLSI M38-A2 method. To be noted: ATCC MYA3633, 48 h.

What is called MIC is the smallest concentration in the dilution series that meets the test's criterion for growth inhibition. Higher therefore signals a need for much substance. On to `CCCCCN1CCN(c2ccc3nc(-c4ccc5nc(-c6ccc(OCC)cc6)[nH]c5c4)[nH]c3c2)CC1`, for which the MIC against Candida albicans [1], against Candida albicans [2], in the experiment on Candida albicans [3], with Candida albicans [4], in the experiment on Candida albicans [5] and in the experiment with Candida albicans [6] was over 31.2 µg/mL throughout. Moreover, the MIC against Candida albicans [7], against Nakaseomyces glabratus, with Pichia kudriavzevii, in the experiment with Candida parapsilosis, in the experiment on Aspergillus flavus and in the experiment with Aspergillus nidulans was over 31.2 µg/mL each time. This compound also came in with an MIC against Aspergillus terreus of over 31.2 µg/mL.

Take `OC(Cn1cncn1)(Cn1cncn1)c1ccc(F)cc1F` [FLUCONAZOLE]: the minimal inhibitory concentration (MIC) is over 125 µg/mL in the experiment on Candida albicans [1]; 15.6 µg/mL (≈ 50.9 µM) against Candida albicans [2]; over 125 µg/mL with Candida albicans [3]; over 125 µg/mL against Candida albicans [4]; over 31.2 µg/mL in the experiment with Nakaseomyces glabratus; 1.95 µg/mL (≈ 6.37 µM) against Candida parapsilosis.

Take `C[C@@H](c1ncncc1F)[C@](O)(Cn1cncn1)c1ccc(F)cc1F` [VORICONAZOLE]: the MIC in the experiment on Candida albicans [1] amounted to 3.9 µg/mL (≈ 11.2 µM); in the experiment on Candida albicans [2], 1.95 µg/mL (≈ 5.58 µM); in the experiment on Candida albicans [3], 1.95 µg/mL (≈ 5.58 µM); against Candida albicans [4], 0.975 µg/mL (≈ 2.79 µM); in the experiment with Candida albicans [5], 7.8 µg/mL (≈ 22.3 µM); against Candida albicans [7] it was 1.95 µg/mL (≈ 5.58 µM). Moreover, the MIC in the experiment on Pichia kudriavzevii is 0.12 µg/mL (≈ 0.344 µM); in the experiment with Candida parapsilosis, under 0.03 µg/mL; in the experiment on Aspergillus nidulans, 0.03 µg/mL (≈ 0.0859 µM); with Aspergillus terreus, 0.12 µg/mL (≈ 0.344 µM).

Consider `C#CCOc1ccc(-c2nc3ccc(N4CCN(C)CC4)cc3[nH]2)cc1`, for which the MIC with Candida albicans [1], in the experiment with Candida albicans [2], in the experiment on Candida albicans [3], with Candida albicans [4], with Candida albicans [5] and against Candida albicans [6] was over 31.2 µg/mL in each case. In addition, the MIC against Candida albicans [7], against Nakaseomyces glabratus, in the experiment with Pichia kudriavzevii, against Candida parapsilosis, against Aspergillus flavus and in the experiment on Aspergillus nidulans was over 31.2 µg/mL throughout. This compound also registered an MIC against Aspergillus terreus of over 31.2 µg/mL.

Regarding `CCCN1CCN(c2ccc3nc(-c4ccc5nc(-c6ccc(O)cc6)[nH]c5c4)[nH]c3c2)CC1`, the MIC in the experiment with Candida albicans [1], against Candida albicans [2], with Candida albicans [3], against Candida albicans [4], against Candida albicans [5] and in the experiment on Candida albicans [6] was 31.2 µg/mL (≈ 68.9 µM) in each case. The MIC was 31.2 µg/mL (≈ 68.9 µM) in the experiment on Candida albicans [7]; 7.8 µg/mL (≈ 17.2 µM) with Nakaseomyces glabratus; 31.2 µg/mL (≈ 68.9 µM) in the experiment with Pichia kudriavzevii; 7.8 µg/mL (≈ 17.2 µM) with Candida parapsilosis; over 31.2 µg/mL in the experiment on Aspergillus flavus; 7.8 µg/mL (≈ 17.2 µM) in the experiment on Aspergillus nidulans. In addition, in the experiment on Aspergillus terreus, the MIC stood at 15.6 µg/mL (≈ 34.5 µM).

In the case of `CC[C@@H]([C@H](C)O)n1ncn(-c2ccc(N3CCN(c4ccc(OC[C@@H]5CO[C@@](Cn6cncn6)(c6ccc(F)cc6F)C5)cc4)CC3)cc2)c1=O` [POSACONAZOLE], the minimal inhibitory concentration (MIC) with Candida albicans [1] was over 62.5 µg/mL; against Candida albicans [2], 7.8 µg/mL (≈ 11.1 µM); against Candida albicans [3], 31.2 µg/mL (≈ 44.5 µM); in the experiment with Candida albicans [4], 31.2 µg/mL (≈ 44.5 µM); against Candida albicans [5], 15.6 µg/mL (≈ 22.3 µM); against Candida albicans [6] it was 0.5 µg/mL (≈ 0.713 µM). In addition, the MIC in the experiment with Candida albicans [7] is 15.6 µg/mL (≈ 22.3 µM); in the experiment on Nakaseomyces glabratus, 0.12 µg/mL (≈ 0.171 µM); against Pichia kudriavzevii, 0.06 µg/mL (≈ 0.0856 µM); in the experiment with Candida parapsilosis, under 0.03 µg/mL; against Aspergillus flavus it was 0.24 µg/mL (≈ 0.342 µM); with Aspergillus nidulans, 0.195 µg/mL (≈ 0.278 µM). The compound further showed a minimal inhibitory concentration (MIC) with Aspergillus terreus of 0.48 µg/mL (≈ 0.685 µM).

As for `CN1CCN(c2ccc3nc(-c4ccc5nc(-c6ccc(OCCOCCO)cc6)[nH]c5c4)[nH]c3c2)CC1`, the minimal inhibitory concentration (MIC) in the experiment with Candida albicans [1], against Candida albicans [2], against Candida albicans [3], with Candida albicans [4], against Candida albicans [5] and in the experiment on Candida albicans [6] was over 31.2 µg/mL each time. Moreover, the MIC against Candida albicans [7] was over 31.2 µg/mL; in the experiment on Nakaseomyces glabratus, over 31.2 µg/mL; in the experiment with Pichia kudriavzevii, 7.8 µg/mL (≈ 15.2 µM); with Candida parapsilosis, 31.2 µg/mL (≈ 60.9 µM); with Aspergillus flavus it was over 31.2 µg/mL; in the experiment with Aspergillus nidulans it was over 31.2 µg/mL. The MIC against Aspergillus terreus was over 31.2 µg/mL.

As to `CCCN1CCN(c2ccc3nc(-c4ccc5nc(-c6ccc(OCC)cc6)[nH]c5c4)[nH]c3c2)CC1`, the MIC against Candida albicans [1], in the experiment with Candida albicans [2], with Candida albicans [3], against Candida albicans [4], with Candida albicans [5] and in the experiment with Candida albicans [6] was over 31.2 µg/mL each time. In addition, the MIC was over 31.2 µg/mL in the experiment on Candida albicans [7]; over 31.2 µg/mL with Nakaseomyces glabratus; 15.6 µg/mL (≈ 32.5 µM) against Pichia kudriavzevii; over 31.2 µg/mL against Candida parapsilosis; over 31.2 µg/mL in the experiment with Aspergillus flavus; over 31.2 µg/mL with Aspergillus nidulans. The compound further had an MIC against Aspergillus terreus of over 31.2 µg/mL.

Values taken from ChEMBL document CHEMBL3817731, “Synthesis and investigation of novel benzimidazole derivatives as antifungal agents” (Bioorg Med Chem, 2016).
